Source: PubChem BioAssay (NCI)
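GI50 = concentration required for 50% inhibition of growth. TGI denotes the concentration required for complete inhibition of growth.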

Experiments:
Experiment in all cases: NCI tumour cell line growth inhibition, 384-well format
SF-295 CNS = test system: SF-295 CNS
CAKI-1 renal = test system: CAKI-1 renal
TK-10 renal = test system: TK-10 renal
EKVX NSCLC = test system: EKVX NSCLC
HL-60(TB) leukemia = test system: HL-60(TB) leukemia
MALME-3M melanoma = test system: MALME-3M melanoma
DU-145 prostate = test system: DU-145 prostate
OVCAR-3 ovarian = test system: OVCAR-3 ovarian
SF-268 CNS = test system: SF-268 CNS
BT-549 breast = test system: BT-549 breast
IGROV1 ovarian = test system: IGROV1 ovarian
OVCAR-4 ovarian = test system: OVCAR-4 ovarian
HCT-15 colon = test system: HCT-15 colon
RPMI-8226 leukemia = test system: RPMI-8226 leukemia
NCI/ADR-RES ovarian = test system: NCI/ADR-RES ovarian
MDA-MB-468 breast = test system: MDA-MB-468 breast
SN12C renal = test system: SN12C renal
NCI-H226 lung = test system: NCI-H226 lung
NCI-H322M lung = test system: NCI-H322M lung
SK-MEL-2 melanoma = test system: SK-MEL-2 melanoma
U251 glioblastoma = test system: U251 glioblastoma
SK-MEL-28 melanoma = test system: SK-MEL-28 melanoma
SK-OV-3 ovarian = test system: SK-OV-3 ovarian
UACC-62 melanoma = test system: UACC-62 melanoma
MDA-MB-435 melanoma = test system: MDA-MB-435 melanoma
A549 NSCLC = test system: A549 NSCLC
UACC-257 melanoma = test system: UACC-257 melanoma

`CCOC(=O)c1cc(/C=C/c2ccc(Cl)cc2Cl)on1` gave a GI50 (SF-295 CNS) of 2.47 µM, a TGI (SF-295 CNS) of 5.3 µM and a GI50 (CAKI-1 renal) of 1.77 µM. For the same compound, the TGI (CAKI-1 renal) was 3.91 µM, the GI50 (TK-10 renal) was 2.37 µM and the TGI (TK-10 renal) was 4.71 µM. It also gave a GI50 (EKVX NSCLC) of 2.7 µM, a TGI (EKVX NSCLC) of 8.84 µM and a GI50 (HL-60(TB) leukemia) of 0.818 µM. It also gave a TGI (HL-60(TB) leukemia) of 2.04 µM, a GI50 (MALME-3M melanoma) of 2.39 µM and a TGI (MALME-3M melanoma) of 4.05 µM. It also gave a GI50 (DU-145 prostate) of 4.46 µM, a TGI (DU-145 prostate) of over 100 µM and a GI50 (OVCAR-3 ovarian) of 1.85 µM. The TGI (OVCAR-3 ovarian) was 3.55 µM, the GI50 (SF-268 CNS) was 4.09 µM and the TGI (SF-268 CNS) was 13.5 µM. For the same compound, the GI50 (BT-549 breast) was 2.11 µM, the TGI (BT-549 breast) was 4.35 µM and the GI50 (IGROV1 ovarian) was 2.09 µM. The TGI (IGROV1 ovarian) was 4.34 µM, the GI50 (OVCAR-4 ovarian) was 2.63 µM and the TGI (OVCAR-4 ovarian) was 7.19 µM. For the same compound, the GI50 (HCT-15 colon) was 1.36 µM, the TGI (HCT-15 colon) was 4.34 µM and the GI50 (RPMI-8226 leukemia) was 0.471 µM. The TGI (RPMI-8226 leukemia) was 1.25 µM, the GI50 (NCI/ADR-RES ovarian) was 1.84 µM and the TGI (NCI/ADR-RES ovarian) was 3.3 µM. For the same compound, the GI50 (MDA-MB-468 breast) was 2.28 µM, the TGI (MDA-MB-468 breast) was 3.94 µM and the GI50 (SN12C renal) was 1.81 µM. It also gave a TGI (SN12C renal) of 3.32 µM, a GI50 (NCI-H226 lung) of 1.96 µM and a TGI (NCI-H226 lung) of 3.83 µM. The GI50 (NCI-H322M lung) was 4.04 µM, the TGI (NCI-H322M lung) was 14.1 µM and the GI50 (SK-MEL-2 melanoma) was 2.12 µM. The TGI (SK-MEL-2 melanoma) was 4.35 µM, the GI50 (U251 glioblastoma) was 1.27 µM and the TGI (U251 glioblastoma) was 3.3 µM. For the same compound, the GI50 (SK-MEL-28 melanoma) was 2.42 µM, the TGI (SK-MEL-28 melanoma) was 4.39 µM and the GI50 (SK-OV-3 ovarian) was 2.01 µM. For the same compound, the TGI (SK-OV-3 ovarian) was 4.15 µM, the GI50 (UACC-62 melanoma) was 2.08 µM and the TGI (UACC-62 melanoma) was 4.26 µM. For the same compound, the GI50 (MDA-MB-435 melanoma) was 3.41 µM, the TGI (MDA-MB-435 melanoma) was 11.3 µM and the GI50 (A549 NSCLC) was 2.44 µM. The TGI (A549 NSCLC) was 6.1 µM, the GI50 (UACC-257 melanoma) was 2.95 µM and the TGI (UACC-257 melanoma) was 5.65 µM.
